{
  "source": "the supplement of paper PMC10307832",
  "test_in_all_cases": "relative viability (nuclei count vs DMSO), 5 days (fraction); higher = more cells survive",
  "key": {"[1]": {"system": "NCI-H650", "outline": "(§1)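 Lung cancer cell lines in 1536-well plates got either a single drug or a fixed anchor-drug dose together with five library-drug doses (not always all listed) in √10 steps, by pin tool, on the day after seeding. Nuclei were counted after 5 days, and relative viability is the treated-to-vehicle ratio of nuclei counts. Values are medians of duplicate plates.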"}, "[2]": {"system": "NCI-H1734", "outline": "as §1"}, "[3]": {"system": "PC-3 [JPC-3]", "outline": "as §1"}, "[4]": {"system": "RERF-LC-KJ", "outline": "as §1"}, "[5]": {"system": "ABC-1", "outline": "as §1"}, "[6]": {"system": "NCI-H1792", "outline": "as §1"}, "[7]": {"system": "EPLC-272H", "outline": "as §1"}, "[8]": {"system": "201T", "outline": "as §1"}, "[9]": {"system": "LCLC-97TM1", "outline": "as §1"}, "[10]": {"system": "NCI-H1915", "outline": "as §1"}, "[11]": {"system": "NCI-H1355", "outline": "as §1"}, "[12]": {"system": "LCLC-103H", "outline": "as §1"}, "[13]": {"system": "NCI-H1651", "outline": "as §1"}, "[14]": {"system": "NCI-H460", "outline": "as §1"}, "[15]": {"system": "HCC-78", "outline": "as §1"}, "[16]": {"system": "NCI-H596", "outline": "as §1"}, "[17]": {"system": "LOU-NH91", "outline": "as §1"}, "[18]": {"system": "NCI-H1993", "outline": "as §1"}, "[19]": {"system": "NCI-H1793", "outline": "as §1"}},
  "data": [
    {"smiles": "Oc1nc(-c2ccc(C(F)(F)F)cc2)nc2c1CSCC2", "note": "[XAV939] + NC(=O)Nc1cc(-c2cccc(F)c2)sc1C(=O)N[C@H]1CCCNC1 [AZD7762] (partner 0.2 µM)", "values": [
      {"measurement": "relative viability", "setting": "[1]; first compound 0.08 µM", "value": 1.04},
      {"measurement": "relative viability", "setting": "[1]; first compound 0.253 µM", "value": 0.809},
      {"measurement": "relative viability", "setting": "[1]; first compound 0.8 µM", "value": 1.02},
      {"measurement": "relative viability", "setting": "[1]; first compound 2.53 µM", "value": 0.773},
      {"measurement": "relative viability", "setting": "[2]; first compound 0.08 µM", "value": 0.617},
      {"measurement": "relative viability", "setting": "[2]; first compound 0.253 µM", "value": 0.515},
      {"measurement": "relative viability", "setting": "[2]; first compound 0.8 µM", "value": 0.59},
      {"measurement": "relative viability", "setting": "[2]; first compound 2.53 µM", "value": 0.51},
      {"measurement": "relative viability", "setting": "[3]; first compound 0.253 µM", "value": 0.691},
      {"measurement": "relative viability", "setting": "[3]; first compound 0.8 µM", "value": 0.753},
      {"measurement": "relative viability", "setting": "[3]; first compound 2.53 µM", "value": 0.801},
      {"measurement": "relative viability", "setting": "[4]; first compound 0.08 µM", "value": 0.925},
      {"measurement": "relative viability", "setting": "[4]; first compound 0.253 µM", "value": 0.711},
      {"measurement": "relative viability", "setting": "[4]; first compound 0.8 µM", "value": 0.848},
      {"measurement": "relative viability", "setting": "[4]; first compound 2.53 µM", "value": 0.69},
      {"measurement": "relative viability", "setting": "[5]; first compound 0.253 µM", "value": 0.537},
      {"measurement": "relative viability", "setting": "[5]; first compound 0.8 µM", "value": 0.768},
      {"measurement": "relative viability", "setting": "[5]; first compound 2.53 µM", "value": 0.676},
      {"measurement": "relative viability", "setting": "[6]; first compound 0.08 µM", "value": 0.823},
      {"measurement": "relative viability", "setting": "[6]; first compound 0.253 µM", "value": 0.595},
      {"measurement": "relative viability", "setting": "[6]; first compound 0.8 µM", "value": 0.636},
      {"measurement": "relative viability", "setting": "[6]; first compound 2.53 µM", "value": 0.591},
      {"measurement": "relative viability", "setting": "[7]; first compound 0.08 µM", "value": 0.229},
      {"measurement": "relative viability", "setting": "[7]; first compound 0.253 µM", "value": 0.18},
      {"measurement": "relative viability", "setting": "[7]; first compound 0.8 µM", "value": 0.193},
      {"measurement": "relative viability", "setting": "[7]; first compound 2.53 µM", "value": 0.0888},
      {"measurement": "relative viability", "setting": "[8]; first compound 0.08 µM", "value": 0.781},
      {"measurement": "relative viability", "setting": "[8]; first compound 0.253 µM", "value": 0.497},
      {"measurement": "relative viability", "setting": "[8]; first compound 0.8 µM", "value": 0.724},
      {"measurement": "relative viability", "setting": "[8]; first compound 2.53 µM", "value": 0.64},
      {"measurement": "relative viability", "setting": "[9]; first compound 0.08 µM", "value": 0.446},
      {"measurement": "relative viability", "setting": "[9]; first compound 0.8 µM", "value": 0.208},
      {"measurement": "relative viability", "setting": "[9]; first compound 2.53 µM", "value": 0.172},
      {"measurement": "relative viability", "setting": "[10]; first compound 0.08 µM", "value": 0.898},
      {"measurement": "relative viability", "setting": "[10]; first compound 0.253 µM", "value": 0.674},
      {"measurement": "relative viability", "setting": "[10]; first compound 0.8 µM", "value": 0.693},
      {"measurement": "relative viability", "setting": "[10]; first compound 2.53 µM", "value": 0.665},
      {"measurement": "relative viability", "setting": "[11]; first compound 0.08 µM", "value": 0.728},
      {"measurement": "relative viability", "setting": "[11]; first compound 0.253 µM", "value": 0.613},
      {"measurement": "relative viability", "setting": "[11]; first compound 0.8 µM", "value": 0.626},
      {"measurement": "relative viability", "setting": "[11]; first compound 2.53 µM", "value": 0.561},
      {"measurement": "relative viability", "setting": "[12]; first compound 0.08 µM", "value": 0.869},
      {"measurement": "relative viability", "setting": "[12]; first compound 0.253 µM", "value": 0.719},
      {"measurement": "relative viability", "setting": "[12]; first compound 0.8 µM", "value": 0.792},
      {"measurement": "relative viability", "setting": "[12]; first compound 2.53 µM", "value": 0.68},
      {"measurement": "relative viability", "setting": "[13]; first compound 0.08 µM", "value": 0.518},
      {"measurement": "relative viability", "setting": "[13]; first compound 0.253 µM", "value": 0.429},
      {"measurement": "relative viability", "setting": "[13]; first compound 0.8 µM", "value": 0.383},
      {"measurement": "relative viability", "setting": "[13]; first compound 2.53 µM", "value": 0.389},
      {"measurement": "relative viability", "setting": "[14]; first compound 0.08 µM", "value": 0.765},
      {"measurement": "relative viability", "setting": "[14]; first compound 0.253 µM", "value": 0.631},
      {"measurement": "relative viability", "setting": "[14]; first compound 0.8 µM", "value": 0.636},
      {"measurement": "relative viability", "setting": "[14]; first compound 2.53 µM", "value": 0.551},
      {"measurement": "relative viability", "setting": "[15]; first compound 0.08 µM", "value": 0.595},
      {"measurement": "relative viability", "setting": "[15]; first compound 0.253 µM", "value": 0.514},
      {"measurement": "relative viability", "setting": "[15]; first compound 0.8 µM", "value": 0.648},
      {"measurement": "relative viability", "setting": "[15]; first compound 2.53 µM", "value": 0.527},
      {"measurement": "relative viability", "setting": "[16]; first compound 0.08 µM", "value": 0.918},
      {"measurement": "relative viability", "setting": "[16]; first compound 0.253 µM", "value": 0.896},
      {"measurement": "relative viability", "setting": "[16]; first compound 0.8 µM", "value": 1.02},
      {"measurement": "relative viability", "setting": "[16]; first compound 2.53 µM", "value": 1.02},
      {"measurement": "relative viability", "setting": "[17]; first compound 0.08 µM", "value": 0.762},
      {"measurement": "relative viability", "setting": "[17]; first compound 0.253 µM", "value": 0.681},
      {"measurement": "relative viability", "setting": "[17]; first compound 0.8 µM", "value": 0.687},
      {"measurement": "relative viability", "setting": "[17]; first compound 2.53 µM", "value": 0.692},
      {"measurement": "relative viability", "setting": "[18]; first compound 0.08 µM", "value": 0.923},
      {"measurement": "relative viability", "setting": "[18]; first compound 0.253 µM", "value": 0.569},
      {"measurement": "relative viability", "setting": "[18]; first compound 0.8 µM", "value": 0.62},
      {"measurement": "relative viability", "setting": "[18]; first compound 2.53 µM", "value": 0.653},
      {"measurement": "relative viability", "setting": "[19]; first compound 0.08 µM", "value": 0.989},
      {"measurement": "relative viability", "setting": "[19]; first compound 0.253 µM", "value": 0.307},
      {"measurement": "relative viability", "setting": "[19]; first compound 0.8 µM", "value": 0.355},
      {"measurement": "relative viability", "setting": "[19]; first compound 2.53 µM", "value": 0.312}
    ]}
  ]
}
